Patent publication US9084546B2, “Co-electrodeposited hydrogel-conducting polymer electrodes for biomedical applications” (The Regents of the University of Michigan, priority 2005, dated 2015)

Key:
[1] = system: MCC (mouse primary cortical cultures); experiment: Cytotoxicity dose-response of EDOT monomer with PSS dopant (cell viability); type: cell-based; details: MCC exposed to as much as 0.01 M EDOT, 0.02M PSS for as long as 72 h
Method: (§1) Materials and Methods: SH-SY5Y neuroblastoma-derived cells were maintained in Dulbecco's Modified-Eagle's Media (DMEM with glucose, with L-glutamine; Gibco/Invitrogen, Carlsbad, Calif.) supplemented with Penn-Strep mixed antibiotic solution (dilute 1:100 in cell media; Gibco/Invitrogen) and 10% fetal bovine serum (FBS; Gibco/Invitrogen). Mouse primary dissociated cortical cultures (MCC) were prepared from embryonic day 18-20 (E18-20) mice. […]
(§2) Cell Viability Assays: Cell viability was assessed using three assays; the Vybrant Live/Dead Assay (Molecular Probes), the MTT cell viability assay (Chemicon, Temecula, Calif.), and immunocytochemistry (ICC) for the apoptosis associated protease, activated caspase 3 (Cell Signaling Technologies, Beverly, Mass.). For Vybrant Live/Dead assay cell quantity, size, and type of nuclear staining intensity were assessed by fluorescence microscopy using 3 different dyes, Hoechst 33342 (labels all cell nuclei but brighter in nuclei of apoptotic cells), YoPro-3 (labels apoptotic cells) and propidium iodide (PI) (labels cells with compromised membrane; apoptotic & necrotic cells). […]

[2] = system: SY5Y cells; experiment: as above; type: cell-based; details: SY5Y cells exposed to as much as 0.01 M EDOT, 0.02M PSS for as long as 72 h
Method: as §1, §2

c1scc2c1OCCO2 [EDOT, 3,4-ethylenedioxythiophene]
cell viability [1]: at least 75%
cell viability [2]: at least 75%
